Laboratory results published in patent US12692238B2, “Substituted pyridazinone herbicides” (FMC CORPORATION, priority 2020, dated 2026).

Key:
Type in all cases: in vivo
[1] = tested on: wheat (Triticum aestivum); test: Test A preemergence, wheat; settings: 125 g ai/ha, 0 to 100 scale, 10 days
[2] = tested on: palmer amaranth (pigweed, palmer, Amaranthus palmeri); test: Test A preemergence, palmer amaranth; settings: 0 to 100 scale, 10 days
Excerpt: (§1) Seeds of plant species selected from barnyardgrass (Echinochloa crus-galli), blackgrass (Alopecurus myosuroides), corn (Zea mays), foxtail, giant (giant foxtail, Setaria faberi), foxtail, green (green foxtail, Setaria viridis), goosegrass (Eleusine indica), kochia (Bassia scoparia), oat, wild (wild oat, Avena fatua), palmer amaranth (pigweed, palmer, Amaranthus palmeri), redroot pigweed (Amaranthus retroflexus), ragweed (common ragweed, Ambrosia artemisiifolia), ryegrass, Italian (Italian ryegrass, Lolium multiflorum), and soybean (Glycine max) were planted into a blend of loam soil and sand and treated preemergence with a directed soil spray using test chemicals formulated in a non-phytotoxic solvent mixture which included a surfactant.
(§2) At the same time, plants selected from these crop and weed species and also wheat (Triticum aestivum), galium (catchweed bedstraw, Galium aparine) and horseweed (Erigeron canadensis) were planted in pots containing the same blend of loam soil and sand and treated with postemergence applications of test chemicals formulated in the same manner. Plants ranged in height from 2 to 10 cm and were in the one- to two-leaf stage for the postemergence treatment. Treated plants and untreated controls were maintained in a greenhouse for 10 days, after which time all treated plants were compared to untreated controls and visually evaluated for injury. Plant response ratings, summarized in Table A, are based on a 0 to 100 scale where 0 is no effect and 100 is complete control. A dash (-) response means no test result.

[3] = tested on: oat, wild (wild oat, Avena fatua); test: Test A preemergence, oat, wild; settings: 0 to 100 scale, 10 days
Excerpt: as §1, §2

[4] = tested on: ducksalad (Heteranthera limosa); test: Test B flooded paddy test, ducksalad; settings: 250 g ai/ha, Flood; visually evaluated after 10 to 14 days
How it was run: (§3)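 Compound added straight to paddy water of pots flooded to 3 cm, with 2-leaf-stage plants; water level held for the test. Injury scored visually against untreated controls after 10 to 14 greenhouse days, 0 (none) to 100 (complete control).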

[5] = tested on: ragweed (common ragweed, Ambrosia artemisiifolia); test: Test A preemergence, ragweed; settings: 0 to 100 scale, 10 days
How it was run: (§4)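 Test chemicals, formulated in a non-phytotoxic solvent mixture with surfactant, are applied either as a directed preemergence soil spray or postemergence to seedlings at the one- to two-leaf stage. Injury is scored visually after 10 days, 0 = no effect to 100 = complete control.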

rice (Oryza sativa) = test: Test B flooded paddy test, rice; settings: 250 g ai/ha, Flood; visually evaluated after 10 to 14 days
How it was run: as §3

[6] = tested on: foxtail, giant (giant foxtail, Setaria faberi); test: Test A postemergence, foxtail, giant; settings: 10 days
Excerpt: as §1, §2

[7] = tested on: ryegrass, Italian (Italian ryegrass, Lolium multiflorum); test: Test A postemergence, ryegrass, Italian; settings: 10 days
How it was run: as §4

[8] = tested on: ryegrass, Italian (Italian ryegrass, Lolium multiflorum); test: Test A preemergence, ryegrass, Italian; settings: 0 to 100 scale, 10 days
How it was run: as §4

[9] = tested on: foxtail, giant (giant foxtail, Setaria faberi); test: Test A preemergence, foxtail, giant; settings: 0 to 100 scale, 10 days
Excerpt: as §1, §2

[10] = tested on: goosegrass (Eleusine indica); test: Test A postemergence, goosegrass; settings: 10 days
Excerpt: as §1, §2

[11] = tested on: sedge, umbrella (small-flower umbrella sedge, Cyperus difformis); test: Test B flooded paddy test, sedge, umbrella; settings: 250 g ai/ha, Flood; visually evaluated after 10 to 14 days
How it was run: as §3

soybean (Glycine max) [12] = test: Test A postemergence, soybean; settings: 10 days
Excerpt: as §1, §2

[13] = tested on: goosegrass (Eleusine indica); test: Test A preemergence, goosegrass; settings: 0 to 100 scale, 10 days
Excerpt: as §1, §2

[14] = tested on: wheat (Triticum aestivum); test: Test A postemergence, wheat; settings: 10 days
How it was run: as §4

[15] = tested on: barnyardgrass (Echinochloa crus-galli); test: Test B flooded paddy test, barnyardgrass; settings: 250 g ai/ha, Flood; visually evaluated after 10 to 14 days
How it was run: as §3

[16] = tested on: blackgrass (Alopecurus myosuroides); test: Test A postemergence, blackgrass; settings: 10 days
How it was run: as §4

[17] = tested on: oat, wild (wild oat, Avena fatua); test: Test A postemergence, oat, wild; settings: 10 days
Excerpt: as §1, §2

[18] = tested on: galium (catchweed bedstraw, Galium aparine); test: Test A postemergence, galium; settings: 10 days
How it was run: as §4

corn (Zea mays) [19] = test: Test A postemergence, corn; settings: 10 days
How it was run: as §4

kochia (Bassia scoparia) [20] = test: Test A preemergence, kochia; settings: 0 to 100 scale, 10 days
How it was run: as §4

[21] = tested on: ragweed (common ragweed, Ambrosia artemisiifolia); test: Test A postemergence, ragweed; settings: 10 days
How it was run: as §4

[22] = tested on: palmer amaranth (pigweed, palmer, Amaranthus palmeri); test: Test A postemergence, palmer amaranth; settings: 10 days
Excerpt: as §1, §2

soybean (Glycine max) [23] = test: Test A preemergence, soybean; settings: 0 to 100 scale, 10 days
Excerpt: as §1, §2

corn (Zea mays) [24] = test: Test A preemergence, corn; settings: 0 to 100 scale, 10 days
Excerpt: as §1, §2

kochia (Bassia scoparia) [25] = test: Test A postemergence, kochia; settings: 10 days
How it was run: as §4

[26] = tested on: horseweed (Erigeron canadensis); test: Test A postemergence, horseweed; settings: 10 days
Excerpt: as §1, §2

[27] = tested on: blackgrass (Alopecurus myosuroides); test: Test A preemergence, blackgrass; settings: 0 to 100 scale, 10 days
Excerpt: as §1, §2

[28] = 31 g ai/ha, postemergence, 0 to 100 scale (0 no effect, 100 complete control)
[29] = Postemergence, 125 g ai/ha, 0 to 100 scale

Cn1nc(Cl)c(OCOC(=O)C(C)(C)C)c(-c2c3ccccc3cc3ccccc23)c1=O [Compound 19]
Plant response rating, Wheat [1]: 0
Plant response rating, Pigweed, Palmer ([2]; 31 g ai/ha): 90
Plant response rating, Pigweed, Palmer ([2]; 125 g ai/ha): 100
Plant response rating, Oat, Wild ([3]; 31 g ai/ha): 0
Plant response rating, Oat, Wild ([3]; 125 g ai/ha): 0
Plant response rating, Ducksalad (0 to 100 scale where 0 is no effect and 100 is complete control) [4]: 100
Plant response rating, Ragweed ([5]; 31 g ai/ha): 80
Plant response rating, Ragweed ([5]; 125 g ai/ha): 80
Plant response rating, Rice (0 to 100 scale where 0 is no effect and 100 is complete control) (rice (Oryza sativa)): 0
Plant response rating, Foxtail, Giant [6, 28]: 10
Plant response rating, Foxtail, Giant [6, 29]: 50
Plant response rating, Ryegrass, Italian [7, 28]: 0
Plant response rating, Ryegrass, Italian [7, 29]: 10
Plant response rating, Ryegrass, Italian ([8]; 31 g ai/ha): 0
Plant response rating, Ryegrass, Italian ([8]; 125 g ai/ha): 80
Plant response rating, Foxtail, Giant ([9]; 31 g ai/ha): 10
Plant response rating, Foxtail, Giant ([9]; 125 g ai/ha): 70
Plant response rating, Goosegrass [10, 28]: 10
Plant response rating, Goosegrass [10, 29]: 10
Plant response rating, Sedge, Umbrella (0 to 100 scale where 0 is no effect and 100 is complete control) [11]: 85
Plant response rating, Soybean (soybean (Glycine max) [12]; [28]): 0
Plant response rating, Soybean (soybean (Glycine max) [12]; [29]): 30
Plant response rating, Goosegrass ([13]; 31 g ai/ha): 0
Plant response rating, Goosegrass ([13]; 125 g ai/ha): 30
Plant response rating, Wheat [14, 28]: 0
Plant response rating, Wheat [14, 29]: 0
Plant response rating, Barnyardgrass (0 to 100 scale where 0 is no effect and 100 is complete control) [15]: 35
Plant response rating, Blackgrass [16, 28]: 0
Plant response rating, Blackgrass [16, 29]: 0
Plant response rating, Oat, Wild [17, 28]: 10
Plant response rating, Oat, Wild [17, 29]: 10
Plant response rating, Galium [18, 28]: 100
Plant response rating, Galium [18, 29]: 100
Plant response rating, Corn (corn (Zea mays) [19]; [28]): 10
Plant response rating, Corn (corn (Zea mays) [19]; [29]): 20
Plant response rating, Kochia (kochia (Bassia scoparia) [20]; 31 g ai/ha): 0
Plant response rating, Kochia (kochia (Bassia scoparia) [20]; 125 g ai/ha): 80
Plant response rating, Ragweed [21, 28]: 100
Plant response rating, Ragweed [21, 29]: 100
Plant response rating, Pigweed, Palmer [22, 28]: 100
Plant response rating, Pigweed, Palmer [22, 29]: 100
Plant response rating, Soybean (soybean (Glycine max) [23]; 31 g ai/ha): 0
Plant response rating, Soybean (soybean (Glycine max) [23]; 125 g ai/ha): 0
Plant response rating, Corn (corn (Zea mays) [24]; 31 g ai/ha): 0
Plant response rating, Corn (corn (Zea mays) [24]; 125 g ai/ha): 0
Plant response rating, Kochia (kochia (Bassia scoparia) [25]; [28]): 40
Plant response rating, Kochia (kochia (Bassia scoparia) [25]; [29]): 80
Plant response rating, Horseweed [26, 28]: 100
Plant response rating, Horseweed [26, 29]: 90
Plant response rating, Blackgrass ([27]; 31 g ai/ha): 0
Plant response rating, Blackgrass ([27]; 125 g ai/ha): 10

Cc1ccc2cc3ccc(F)cc3c(-c3c(OCOC(=O)OC(C)C)c(C)nn(C)c3=O)c2c1 [Compound 17]
Plant response rating, Wheat [1]: 0
Plant response rating, Pigweed, Palmer ([2]; 31 g ai/ha): 100
Plant response rating, Pigweed, Palmer ([2]; 125 g ai/ha): 100
Plant response rating, Oat, Wild ([3]; 31 g ai/ha): 0
Plant response rating, Oat, Wild ([3]; 125 g ai/ha): 0
Plant response rating, Ducksalad (0 to 100 scale where 0 is no effect and 100 is complete control) [4]: 85
Plant response rating, Ragweed ([5]; 31 g ai/ha): 100
Plant response rating, Ragweed ([5]; 125 g ai/ha): 100
Plant response rating, Rice (0 to 100 scale where 0 is no effect and 100 is complete control) (rice (Oryza sativa)): 45
Plant response rating, Foxtail, Giant [6, 28]: 100
Plant response rating, Foxtail, Giant [6, 29]: 100
Plant response rating, Ryegrass, Italian [7, 28]: 70
Plant response rating, Ryegrass, Italian [7, 29]: 100
Plant response rating, Ryegrass, Italian ([8]; 31 g ai/ha): 30
Plant response rating, Ryegrass, Italian ([8]; 125 g ai/ha): 80
Plant response rating, Foxtail, Giant ([9]; 31 g ai/ha): 100
Plant response rating, Foxtail, Giant ([9]; 125 g ai/ha): 100
Plant response rating, Goosegrass [10, 28]: 30
Plant response rating, Goosegrass [10, 29]: 50
Plant response rating, Sedge, Umbrella (0 to 100 scale where 0 is no effect and 100 is complete control) [11]: 85
Plant response rating, Soybean (soybean (Glycine max) [12]; [28]): 60
Plant response rating, Soybean (soybean (Glycine max) [12]; [29]): 80
Plant response rating, Goosegrass ([13]; 31 g ai/ha): 50
Plant response rating, Goosegrass ([13]; 125 g ai/ha): 60
Plant response rating, Wheat [14, 28]: 0
Plant response rating, Wheat [14, 29]: 0
Plant response rating, Barnyardgrass (0 to 100 scale where 0 is no effect and 100 is complete control) [15]: 70
Plant response rating, Blackgrass [16, 28]: 0
Plant response rating, Blackgrass [16, 29]: 10
Plant response rating, Oat, Wild [17, 28]: 10
Plant response rating, Oat, Wild [17, 29]: 30
Plant response rating, Galium [18, 28]: 100
Plant response rating, Galium [18, 29]: 100
Plant response rating, Corn (corn (Zea mays) [19]; [28]): 0
Plant response rating, Corn (corn (Zea mays) [19]; [29]): 30
Plant response rating, Kochia (kochia (Bassia scoparia) [20]; 31 g ai/ha): 90
Plant response rating, Kochia (kochia (Bassia scoparia) [20]; 125 g ai/ha): 90
Plant response rating, Ragweed [21, 28]: 100
Plant response rating, Ragweed [21, 29]: 100
Plant response rating, Pigweed, Palmer [22, 28]: 90
Plant response rating, Pigweed, Palmer [22, 29]: 100
Plant response rating, Soybean (soybean (Glycine max) [23]; 31 g ai/ha): 0
Plant response rating, Soybean (soybean (Glycine max) [23]; 125 g ai/ha): 0
Plant response rating, Corn (corn (Zea mays) [24]; 31 g ai/ha): 0
Plant response rating, Corn (corn (Zea mays) [24]; 125 g ai/ha): 30
Plant response rating, Kochia (kochia (Bassia scoparia) [25]; [28]): 100
Plant response rating, Kochia (kochia (Bassia scoparia) [25]; [29]): 100
Plant response rating, Horseweed [26, 28]: 100
Plant response rating, Horseweed [26, 29]: 100
Plant response rating, Blackgrass ([27]; 31 g ai/ha): 0
Plant response rating, Blackgrass ([27]; 125 g ai/ha): 20
